Assay results as given in US20250283124A1, “POLYHYDROXYALKANOATE-PRODUCING BACTERIA AND METHODS FOR MAKING AND USING THEM” (SAN DIEGO STATE UNIVERSITY (SDSU) FOUNDATION, DBA SAN DIEGO …, priority 2021, published 2025).

Test system: LW8
Assay: Antibiotic susceptibility testing (antibiotic disks), strain LW8
Assay type: cell-based, Methylosinus sp.
Conditions: antibiotic disks on solid P0% media, methane:air, one week, disk content as in column head
Protocol: Antibiotic Resistance Tests: To identify genetic markers suitable for genetic manipulation of PHA producing cultures, an antibiotic-resistance screening using antibiotic disks was performed. All strains were plated onto solid P0% media by spreading, then up to 4 antibiotic disks were placed on top. The plates were incubated under methane:air for one week and then were evaluated.

[H]/N=C(/N)N[C@H]1[C@H](O)[C@@H](O)[C@H](O[C@@H]2O[C@@H](C)[C@](O)(C=O)[C@H]2O[C@@H]2O[C@@H](CO)[C@H](O)[C@@H](O)[C@@H]2NC)[C@@H](N/C(N)=N\[H])[C@@H]1O [Streptomycin]
Antibiotic susceptibility testing (AST) results: Resistant
